Target: T1, CK1α (Homo sapiens, UniProt P48729+Q96SW2)
T1 construct: expressed in transfected cells
Test: CK1α ePL degradation assay in MDS-L cells
Format: cell-based
Conditions: MDS-L cells expressing ePL-tagged CK1α; for DC50: concentration giving 50% CK1α degradation vs DMSO control; for Y: lowest measured CK1α level normalized to DMSO control
Description: The following is an example of an assay that can be used to determine the CK1α degradation activity of Isoindolinone Carboxamide Compounds in a cell line, for example, the MDS-L cell line.
Compounds were dispensed by an acoustic dispenser (ATS acoustic transfer system from EDC Biosystems) into a 384-well in a 10 point dose-response curve using 3-fold dilutions starting at 10 μM and going down to 0.0005 μM in DMSO. […] Assay plates were incubated at 37° C. with 5% CO2 for the indicated times. At the different time points, 25 μL of the InCELL Hunter™ Detection Reagent Working Solution (catalog number 96-0002, DiscoverX, Fremont, Calif.) was added to each well and incubated at RT for 30 min protected from light. After 30 min, luminescence was read on a PHERAstar luminometer (BMG LABTECH, Cary, N.C.).
CK1α levels in compound-treated wells were normalized to that of DMSO control and expressed as percent of control (PoC) (y).
The lowest measured CK1α level normalized to DMSO control in response to compound treatment, termed Y value, was used to characterize the compound-mediated CK1α degradation efficiency.

T1 sequence (P48729 whole entry): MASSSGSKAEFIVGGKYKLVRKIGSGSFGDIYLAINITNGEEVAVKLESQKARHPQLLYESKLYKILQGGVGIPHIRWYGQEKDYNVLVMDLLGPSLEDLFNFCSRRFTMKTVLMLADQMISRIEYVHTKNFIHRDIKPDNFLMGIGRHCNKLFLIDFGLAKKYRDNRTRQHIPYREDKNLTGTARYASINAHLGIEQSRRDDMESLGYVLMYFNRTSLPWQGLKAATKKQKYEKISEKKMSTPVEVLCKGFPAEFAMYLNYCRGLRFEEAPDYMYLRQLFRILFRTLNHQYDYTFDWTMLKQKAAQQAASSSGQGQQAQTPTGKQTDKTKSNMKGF
T1 sequence (Q96SW2 whole entry): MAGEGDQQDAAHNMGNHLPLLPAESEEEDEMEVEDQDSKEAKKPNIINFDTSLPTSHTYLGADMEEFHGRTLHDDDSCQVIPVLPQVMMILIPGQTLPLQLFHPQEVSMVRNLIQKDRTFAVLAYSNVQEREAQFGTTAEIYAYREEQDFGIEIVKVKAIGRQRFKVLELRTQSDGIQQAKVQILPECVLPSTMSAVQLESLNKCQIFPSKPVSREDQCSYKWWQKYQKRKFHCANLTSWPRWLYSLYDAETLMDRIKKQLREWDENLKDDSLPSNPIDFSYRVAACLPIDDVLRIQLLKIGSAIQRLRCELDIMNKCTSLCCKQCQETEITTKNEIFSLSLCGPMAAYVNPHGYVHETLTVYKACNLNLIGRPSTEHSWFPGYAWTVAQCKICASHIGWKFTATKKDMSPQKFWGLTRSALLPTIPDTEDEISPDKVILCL
T1 sequence (Q16531 whole entry partner): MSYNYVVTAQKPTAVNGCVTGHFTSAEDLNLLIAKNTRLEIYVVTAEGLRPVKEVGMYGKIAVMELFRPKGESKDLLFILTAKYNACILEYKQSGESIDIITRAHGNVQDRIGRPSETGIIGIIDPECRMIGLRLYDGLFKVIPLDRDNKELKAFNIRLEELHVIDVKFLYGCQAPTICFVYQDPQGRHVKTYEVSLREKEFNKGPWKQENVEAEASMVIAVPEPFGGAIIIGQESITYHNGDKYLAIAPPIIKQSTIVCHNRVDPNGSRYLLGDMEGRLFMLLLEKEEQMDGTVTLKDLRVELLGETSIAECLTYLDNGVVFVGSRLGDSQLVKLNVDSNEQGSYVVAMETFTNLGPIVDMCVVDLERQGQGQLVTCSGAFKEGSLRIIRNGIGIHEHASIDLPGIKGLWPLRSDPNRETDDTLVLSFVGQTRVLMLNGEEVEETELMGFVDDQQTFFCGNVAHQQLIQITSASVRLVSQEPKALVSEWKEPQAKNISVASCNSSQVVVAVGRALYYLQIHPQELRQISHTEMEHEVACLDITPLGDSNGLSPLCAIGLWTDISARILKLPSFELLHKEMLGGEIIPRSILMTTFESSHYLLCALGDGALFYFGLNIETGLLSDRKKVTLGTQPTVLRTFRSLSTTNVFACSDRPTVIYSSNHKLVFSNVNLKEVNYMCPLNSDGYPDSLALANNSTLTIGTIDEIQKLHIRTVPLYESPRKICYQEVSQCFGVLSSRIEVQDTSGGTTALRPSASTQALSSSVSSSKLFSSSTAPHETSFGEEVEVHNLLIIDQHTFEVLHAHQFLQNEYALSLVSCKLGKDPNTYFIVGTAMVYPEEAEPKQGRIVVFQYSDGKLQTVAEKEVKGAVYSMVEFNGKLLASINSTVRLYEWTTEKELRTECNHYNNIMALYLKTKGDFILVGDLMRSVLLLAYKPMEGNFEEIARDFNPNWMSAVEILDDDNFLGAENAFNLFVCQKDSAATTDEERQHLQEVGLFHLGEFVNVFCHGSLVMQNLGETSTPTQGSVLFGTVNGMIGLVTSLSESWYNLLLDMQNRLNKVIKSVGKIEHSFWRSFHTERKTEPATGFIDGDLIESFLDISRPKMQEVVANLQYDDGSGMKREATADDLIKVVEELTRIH

| SMILES | DC50 [µM] | Y |
| --- | --- | --- |
| O=C1CCC(N2Cc3c(ccc(C(=O)N[C@H](C4CCCC4)C(F)(F)F)c3F)C2=O)C(=O)N1 (stereo partly drawn) [Example 137, N-((R)-1-cyclopentyl-2,2,2-trifluoroethyl)-2-(2,6-dioxopiperidin-3-yl)-4-fluoro-1-oxoisoindoline-5-carboxamide] | < 0.1 | * (a Y value (shown as *) of 0<Y≤20%) |
| COc1cccc([C@@H](NC(=O)c2ccc3c(c2)CN(C2CCC(=O)NC2=O)C3=O)C(F)(F)F)c1 (stereo partly shown) [Example 33] | < 0.1 | * (a Y value (shown as *) of 0<Y≤20%) |
| C[C@@H](NC(=O)c1ccc2c(c1)CN(C1CCC(=O)NC1=O)C2=O)C1CCCCC1 (stereo partly shown) [Example 4] | < 0.1 | * (a Y value (shown as *) of 0<Y≤20%) |
| O=C1CCC(N2Cc3cc(C(=O)N[C@H](CC(F)(F)F)c4ccc(F)cc4)ccc3C2=O)C(=O)N1 (stereo partly drawn) [Example 191, 2-(2,6-dioxopiperidin-3-yl)-1-oxo-N-((R)-3,3,3-trifluoro-1-(4-fluorophenyl)propyl)isoindoline-5-carboxamide] | 0.1 to 0.5 | ** (a Y value (shown as**) of 20%<Y≤35%) |
| O=C1CCC(N2Cc3cc(C(=O)N[C@H](c4ccccc4Oc4ccccc4)C(F)(F)F)ccc3C2=O)C(=O)N1 (stereo partly drawn) [Example 159, 2-(2,6-dioxopiperidin-3-yl)-1-oxo-N-((R)-2,2,2-trifluoro-1-(2-phenoxyphenyl)ethyl)isoindoline-5-carboxamide] | < 0.1 | * (a Y value (shown as *) of 0<Y≤20%) |
| O=C1CCC(N2Cc3cc(C(=O)N[C@H](c4ccccc4F)C(F)(F)F)ccc3C2=O)C(=O)N1 (stereo partly drawn) [Example 49, 2-(2,6-dioxopiperidin-3-yl)-1-oxo-N-((R)-2,2,2-trifluoro-1-(2-fluorophenyl)ethyl)isoindoline-5-carboxamide] | < 0.1 | * (a Y value (shown as *) of 0<Y≤20%) |
| O=C1CCC(N2Cc3cc(C(=O)N[C@H](CC(F)(F)F)c4cccc(Cl)c4)ccc3C2=O)C(=O)N1 (stereo partly drawn) [Example 194, N-((R)-1-(3-chlorophenyl)-3,3,3-trifluoropropyl)-2-(2,6-dioxopiperidin-3-yl)-1-oxoisoindoline-5-carboxamide] | < 0.1 | ** (a Y value (shown as**) of 20%<Y≤35%) |
| C[C@H](NC(=O)c1ccc2c(c1)CN(C1CCC(=O)NC1=O)C2=O)c1ccccn1 (stereo partly shown) [Example 10] | 0.1 to 0.5 | ** (a Y value (shown as**) of 20%<Y≤35%) |
| CN(C)Cc1cnc([C@@H](NC(=O)c2ccc3c(c2)CN(C2CCC(=O)NC2=O)C3=O)C(F)(F)F)c(Cl)c1 (stereo partly drawn) [Example 202, N-((R)-1-(3-chloro-5-((dimethylamino)methyl)pyridin-2-yl)-2,2,2-trifluoroethyl)-2-(2,6-dioxopiperidin-3-yl)-1-oxoisoindoline-5-carboxamide] | < 0.1 | * (a Y value (shown as *) of 0<Y≤20%) |
| O=C1CCC(N2Cc3c(ccc(C(=O)N[C@H](c4ccccc4C(F)(F)F)C(F)(F)F)c3F)C2=O)C(=O)N1 (stereo partly drawn) [Example 98, 2-(2,6-dioxopiperidin-3-yl)-4-fluoro-1-oxo-N-((R)-2,2,2-trifluoro-1-(2-(trifluoromethyl)phenyl)ethyl)isoindoline-5-carboxamide] | < 0.1 | * (a Y value (shown as *) of 0<Y≤20%) |
| CC(C)Oc1cccc([C@@H](NC(=O)c2ccc3c(c2)CN(C2CCC(=O)NC2=O)C3=O)C(F)(F)F)c1 (stereo partly drawn) [Example 102, 2-(2,6-dioxopiperidin-3-yl)-1-oxo-N-((R)-2,2,2-trifluoro-1-(3-isopropoxyphenyl)ethyl)isoindoline-5-carboxamide] | < 0.1 | ** (a Y value (shown as**) of 20%<Y≤35%) |
| O=C1CCC(N2Cc3cc(C(=O)N[C@H](c4ccc(Oc5ccccc5)cc4)C(F)(F)F)ccc3C2=O)C(=O)N1 (stereo partly drawn) [Example 147, 2-(2,6-dioxopiperidin-3-yl)-1-oxo-N-((R)-2,2,2-trifluoro-1-(4-phenoxyphenyl)ethyl)isoindoline-5-carboxamide] | 0.1 to 0.5 | ** (a Y value (shown as**) of 20%<Y≤35%) |
| O=C1CCC(N2Cc3cc(C(=O)N[C@H](c4ccccc4OC4CC4)C(F)(F)F)ccc3C2=O)C(=O)N1 (stereo partly drawn) [Example 161, N-((R)-1-(2-cyclopropoxyphenyl)-2,2,2-trifluoroethyl)-2-(2,6-dioxopiperidin-3-yl)-1-oxoisoindoline-5-carboxamide] | < 0.1 | * (a Y value (shown as *) of 0<Y≤20%) |
| O=C1CCC(N2Cc3cc(C(=O)N[C@H](c4ccccc4F)C(F)(F)F)c(F)cc3C2=O)C(=O)N1 (stereo partly drawn) [Example 99, 2-(2,6-dioxopiperidin-3-yl)-6-fluoro-1-oxo-N-((R)-2,2,2-trifluoro-1-(2-fluorophenyl)ethyl)isoindoline-5-carboxamide] | 0.1 to 0.5 | ** (a Y value (shown as**) of 20%<Y≤35%) |
| CN1CCN(c2ccccc2[C@@H](NC(=O)c2ccc3c(c2)CN(C2CCC(=O)NC2=O)C3=O)C(F)(F)F)CC1 (stereo partly drawn) [Example 206, 2-(2,6-dioxopiperidin-3-yl)-1-oxo-N-((R)-2,2,2-trifluoro-1-(2-(4-methylpiperazin-1-yl)phenyl)ethyl)isoindoline-5-carboxamide] | < 0.1 | * (a Y value (shown as *) of 0<Y≤20%) |
| COc1ccccc1[C@@H](NC(=O)c1ccc2c(c1)CN(C1CCC(=O)NC1=O)C2=O)C(F)(F)F (stereo partly drawn) [Example 38, 2-(2,6-dioxopiperidin-3-yl)-1-oxo-N-((R)-2,2,2-trifluoro-1-(2-methoxyphenyl)ethyl)isoindoline-5-carboxamide] | < 0.1 | * (a Y value (shown as *) of 0<Y≤20%) |
| C[C@H](NC(=O)c1ccc2c(c1)CN(C1CCC(=O)NC1=O)C2=O)c1ccc(F)cc1Cl (stereo partly drawn) [Example 59, N-((S)-1-(2-chloro-4-fluorophenyl)ethyl)-2-(2,6-dioxopiperidin-3-yl)-1-oxoisoindoline-5-carboxamide] | < 0.1 | * (a Y value (shown as *) of 0<Y≤20%) |
| O=C1CCC(N2Cc3c(ccc(C(=O)N[C@H](c4ccc(F)cc4)C(F)(F)F)c3F)C2=O)C(=O)N1 (stereo partly drawn) [Example 96, 2-(2,6-dioxopiperidin-3-yl)-4-fluoro-1-oxo-N-((R)-2,2,2-trifluoro-1-(4-fluorophenyl)ethyl)isoindoline-5-carboxamide] | < 0.1 | * (a Y value (shown as *) of 0<Y≤20%) |
| Cc1cccc([C@@H](NC(=O)c2ccc3c(c2F)CN(C2CCC(=O)NC2=O)C3=O)C(F)(F)F)c1 (stereo partly drawn) [Example 134, 2-(2,6-dioxopiperidin-3-yl)-4-fluoro-1-oxo-N-((R)-2,2,2-trifluoro-1-m-tolylethyl)isoindoline-5-carboxamide] | < 0.1 | ** (a Y value (shown as**) of 20%<Y≤35%) |
| O=C1CCC(N2Cc3c(ccc(C(=O)N[C@H](c4ncc(F)cc4Cl)C(F)(F)F)c3F)C2=O)C(=O)N1 (stereo partly drawn) [Example 183, N-((R)-1-(3-chloro-5-fluoropyridin-2-yl)-2,2,2-trifluoroethyl)-2-(2,6-dioxopiperidin-3-yl)-4-fluoro-1-oxoisoindoline-5-carboxamide] | < 0.1 | * (a Y value (shown as *) of 0<Y≤20%) |
| Cc1ccccc1[C@@H](CC(F)(F)F)NC(=O)c1ccc2c(c1)CN(C1CCC(=O)NC1=O)C2=O (stereo partly drawn) [Example 196, 2-(2,6-dioxopiperidin-3-yl)-1-oxo-N-((R)-3,3,3-trifluoro-1-o-tolylpropyl)isoindoline-5-carboxamide] | < 0.1 | * (a Y value (shown as *) of 0<Y≤20%) |
| C[C@H](NC(=O)c1ccc2c(c1)CN(C1CCC(=O)NC1=O)C2=O)c1ccc(F)cc1F (stereo partly drawn) [Example 51, N-((S)-1-(2,4-difluorophenyl)ethyl)-2-(2,6-dioxopiperidin-3-yl)-1-oxoisoindoline-5-carboxamide] | < 0.1 | * (a Y value (shown as *) of 0<Y≤20%) |
| O=C1CCC(N2Cc3cc(C(=O)N[C@@H](CC(F)(F)F)c4cccc(F)c4)ccc3C2=O)C(=O)N1 (stereo partly drawn) [Example 162, 2-(2,6-dioxopiperidin-3-yl)-1-oxo-N-((S)-3,3,3-trifluoro-1-(3-fluorophenyl)propyl)isoindoline-5-carboxamide] | 0.1 to 0.5 | ** (a Y value (shown as**) of 20%<Y≤35%) |
| O=C1CCC(N2Cc3c(ccc(C(=O)N[C@H](c4ccc(F)cc4)C(F)F)c3F)C2=O)C(=O)N1 (stereo partly drawn) [Example 112, N-((R)-2,2-difluoro-1-(4-fluorophenyl)ethyl)-2-(2,6-dioxopiperidin-3-yl)-4-fluoro-1-oxoisoindoline-5-carboxamide] | < 0.1 | * (a Y value (shown as *) of 0<Y≤20%) |
| O=C1CCC(N2Cc3cc(C(=O)N[C@H]([C@H]4CC[C@H](O)CC4)C(F)(F)F)ccc3C2=O)C(=O)N1 (stereo partly drawn) [Example 56, 2-(2,6-dioxopiperidin-3-yl)-1-oxo-N-((R)-2,2,2-trifluoro-1-((1r,4R)-4-hydroxycyclohexyl)ethyl)isoindoline-5-carboxamide] | 0.1 to 0.5 | * (a Y value (shown as *) of 0<Y≤20%) |
| C[C@]1(O)CC[C@@H]([C@@H](NC(=O)c2ccc3c(c2)CN(C2CCC(=O)NC2=O)C3=O)C(F)(F)F)CC1 (stereo partly drawn) [Example 168, 2-(2,6-dioxopiperidin-3-yl)-1-oxo-N-((R)-2,2,2-trifluoro-1-((1s,4S)-4-hydroxy-4-methylcyclohexyl)ethyl)isoindoline-5-carboxamide] | < 0.1 | * (a Y value (shown as *) of 0<Y≤20%) |

— patent US11306101B2 (Celgene Corporation, priority 2019, dated 2022)
